Biological target: T1, purified ITK (Invitrogen PV3875) (Homo sapiens, UniProt Q08881)
T1 construct: purchased Invitrogen PV3875
T1 sequence (Q08881 1-620): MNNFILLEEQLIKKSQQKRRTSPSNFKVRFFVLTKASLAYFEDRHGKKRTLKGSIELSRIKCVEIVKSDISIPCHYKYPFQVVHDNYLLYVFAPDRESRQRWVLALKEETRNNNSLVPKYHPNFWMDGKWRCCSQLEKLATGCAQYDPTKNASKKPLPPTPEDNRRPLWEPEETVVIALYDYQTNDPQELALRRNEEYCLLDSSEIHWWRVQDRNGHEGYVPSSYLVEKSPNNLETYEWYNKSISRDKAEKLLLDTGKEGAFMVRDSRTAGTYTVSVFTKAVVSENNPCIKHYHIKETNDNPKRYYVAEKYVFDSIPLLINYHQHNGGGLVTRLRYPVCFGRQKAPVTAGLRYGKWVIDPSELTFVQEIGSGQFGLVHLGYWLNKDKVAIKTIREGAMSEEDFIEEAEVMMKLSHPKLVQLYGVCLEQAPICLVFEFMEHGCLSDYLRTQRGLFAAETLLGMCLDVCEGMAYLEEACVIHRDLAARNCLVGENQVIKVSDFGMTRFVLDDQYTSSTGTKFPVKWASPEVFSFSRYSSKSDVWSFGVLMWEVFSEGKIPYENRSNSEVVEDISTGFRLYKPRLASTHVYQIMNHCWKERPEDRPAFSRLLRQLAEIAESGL
Experiment: ITK peptide phosphorylation assay (Caliper LabChip or LCMS)
Assay type: biochemical
Protocol: The ability of purified ITK (Invitrogen PV3875) to catalyze peptide phosphorylation is monitored using a Caliper LabChip 3000 microfluidic unit (Caliper assay) or by liquid chromatography-mass spectrometry (LCMS) using a Waters Acquity system (LCMS assay). […] Reactions are quenched by the addition of 2,2′,2″,2′″-(ethane-1,2-diyldinitrilo)tetraacetic acid (50 mM final). Non-phosphorylated substrate and phosphorylated product peptides are separated and quantified using a Caliper LabChip 3000 instrument. […] Reactions are quenched by the addition of trichloroacetic acid (5% v/v final). Non-phosphorylated substrate and phosphorylated product peptides are separated by ultra performance LC and detected by a coupled triple quadrupole MS device applying multiple reaction monitoring (MRM) for quantification. The area of the MRM-extracted mass signal is used to assess the inhibition by test compounds. Equilibrium dissociation constant (Ki) values for ITK inhibitors are calculated from plots of activity vs. inhibitor concentration using Morrison's quadratic equation that accounts for the potential of tight binding, and by also applying the conversion factor that accounts for competitive inhibition and the concentration of ATP used in the assay relative to its apparent Michaelis constant (Km,app).

[1] = Table 2, Examples 1-140, class symbols
[2] = Table 3, specific values for certain examples

Ki [1]	Ki [2]	SMILES
1 to 100 nM	–	NC(=O)c1cccc(Cn2cc(NC(=O)c3n[nH]c4cc(-c5cccnc5)ccc34)cn2)c1 [Example 31, N-[1-[(3-carbamoylphenyl)methyl]pyrazol-4-yl]-6-(3-pyridyl)-1H-indazole-3-carboxamide]
1 to 100 nM	–	Nc1cc(Cn2cc(NC(=O)c3n[nH]c4cc(-c5cccnc5)ccc34)cn2)ccn1 [Example 32, N-[1-[(2-amino-4-pyridyl)methyl]pyrazol-4-yl]-6-(3-pyridyl)-1H-indazole-3-carboxamide]
1 to 100 nM	–	CNC(=O)c1ccc(Cn2cc(NC(=O)c3n[nH]c4cc(-c5cccnc5)ccc34)cn2)o1 [Example 33, N-[1-[[5-(methylcarbamoyl)-2-furyl]methyl]pyrazol-4-yl]-6-(3-pyridyl)-1H-indazole-3-carboxamide]
1 to 100 nM	–	O=C(Nc1cnn(Cc2cscn2)c1)c1n[nH]c2cc(-c3cccnc3)ccc12 [Example 34, 6-(3-pyridyl)-N-[1-(thiazol-4-ylmethyl)pyrazol-4-yl]-1H-indazole-3-carboxamide]
1 to 100 nM	–	O=C(O)c1ccc(Cn2cc(NC(=O)c3n[nH]c4cc(-c5cn[nH]c5)ccc34)cn2)o1 [Example 35, 5-(4-{[6-(1H-Pyrazol-4-yl)-1H-indazole-3-carbonyl]-amino}-pyrazol-1-ylmethyl)-furan-2-carboxylic acid]
0.01 to 1 nM	–	O=C(Nc1cnn(Cc2cccc(-c3cccnc3)c2)c1)c1n[nH]c2cc(-c3cn[nH]c3)ccc12 [Example 36, 6-(1H-Pyrazol-4-yl)-1H-indazole-3-carboxylic acid [1-(3-pyridin-3-yl-benzyl)-1H-pyrazol-4-yl]-amide]
0.01 to 1 nM	–	O=C(Nc1cnn(Cc2cccc(-c3ccncc3)c2)c1)c1n[nH]c2cc(-c3cn[nH]c3)ccc12 [Example 37, 6-(1H-Pyrazol-4-yl)-1H-indazole-3-carboxylic acid [1-(3-pyridin-4-yl-benzyl)-1H-pyrazol-4-yl]-amide]
1 to 100 nM	–	O=C(Nc1cnn(Cc2cccc(-c3ccccn3)c2)c1)c1n[nH]c2cc(-c3cn[nH]c3)ccc12 [Example 38, 6-(1H-Pyrazol-4-yl)-1H-indazole-3-carboxylic acid [1-(3-pyridin-2-yl-benzyl)-1H-pyrazol-4-yl]-amide]
0.01 to 1 nM	–	CN1CCN(c2cccc(Cn3cc(NC(=O)c4n[nH]c5cc(-c6cn[nH]c6)ccc45)cn3)c2)CC1 [Example 39, N-[1-[[3-(4-methylpiperazin-1-yl)phenyl]methyl]pyrazol-4-yl]-6-(1H-pyrazol-4-yl)-1H-indazole-3-carboxamide]
0.01 to 1 nM	–	O=C(Nc1cnn(Cc2cccc(N3CCOCC3)c2)c1)c1n[nH]c2cc(-c3cn[nH]c3)ccc12 [Example 40, N-[1-[(3-morpholinophenyl)methyl]pyrazol-4-yl]-6-(1H-pyrazol-4-yl)-1H-indazole-3-carboxamide]
1 to 100 nM	–	O=C(Nc1cnn(Cc2csc(N3CCOCC3)n2)c1)c1n[nH]c2cc(-c3cn[nH]c3)ccc12 [Example 41, N-[1-[(2-morpholinothiazol-4-yl)methyl]pyrazol-4-yl]-6-(1H-pyrazol-4-yl)-1H-indazole-3-carboxamide]
1 to 100 nM	–	CN1CCN(c2nc(Cn3cc(NC(=O)c4n[nH]c5cc(-c6cn[nH]c6)ccc45)cn3)cs2)CC1 [Example 42, N-[1-[[2-(4-methylpiperazin-1-yl)thiazol-4-yl]methyl]pyrazol-4-yl]-6-(1H-pyrazol-4-yl)-1H-indazole-3-carboxamide]
1 to 100 nM	–	O=C(Nc1cnn(Cc2cscn2)c1)c1n[nH]c2cc(-c3cc[nH]n3)ccc12 [Example 43, 6-(1H-Pyrazol-3-yl)-1H-indazole-3-carboxylic acid (1-thiazol-4-ylmethyl-1H-pyrazol-4-yl)-amide]
1 to 100 nM	–	N#Cc1cncc(-c2ccc3c(C(=O)Nc4cnn(Cc5cscn5)c4)n[nH]c3c2)c1 [Example 44, 6-(5-Cyano-pyridin-3-yl)-1H-indazole-3-carboxylic acid (1-thiazol-4-ylmethyl-1H-pyrazol-4-yl)-amide]
1 to 100 nM	–	Nc1ccc(-c2ccc3c(C(=O)Nc4cnn(Cc5cscn5)c4)n[nH]c3c2)cn1 [Example 45, 6-(6-Amino-pyridin-3-yl)-1H-indazole-3-carboxylic acid (1-thiazol-4-ylmethyl-1H-pyrazol-4-yl)-amide]
0.01 to 1 nM	–	O=C(O)c1cccc(Cn2cc(NC(=O)c3n[nH]c4cc(-c5cn[nH]c5)ccc34)cn2)c1 [Example 46, 3-(4-{[6-(1H-Pyrazol-4-yl)-1H-indazole-3-carbonyl]-amino}-pyrazol-1-ylmethyl)-benzoic acid]
1 to 100 nM	–	CC(C)(O)c1cccc(Cn2cc(NC(=O)c3n[nH]c4cc(-c5cn[nH]c5)ccc34)cn2)c1 [Example 47, 6-(1H-Pyrazol-4-yl)-1H-indazole-3-carboxylic acid {1-[3-(1-hydroxy-1-methyl-ethyl)-benzyl]-1H-pyrazol-4-yl}-amide]

Ki [1]	Ki [2]	SMILES
0.01 to 1 nM	–	O=C(Nc1cnn(Cc2cccc(-c3nn[nH]n3)c2)c1)c1n[nH]c2cc(-c3cn[nH]c3)ccc12 [Example 48, 6-(1H-Pyrazol-4-yl)-1H-indazole-3-carboxylic acid {1-[3-(2H-tetrazol-5-yl)-benzyl]-1H-pyrazol-4-yl}-amide]
1 to 100 nM	–	O=C(Nc1cnn(Cc2ccncc2)c1)c1n[nH]c2ccccc12 [Example 52, N-(1-(pyridin-4-ylmethyl)-1H-pyrazol-4-yl)-1H-indazole-3-carboxamide]
1 to 100 nM	–	Cc1ccc(Cn2cc(NC(=O)c3n[nH]c4ccccc34)cn2)cc1 [Example 53, N-(1-(4-methylbenzyl)-1H-pyrazol-4-yl)-1H-indazole-3-carboxamide]
1 to 100 nM	53.2 nM	O=C(Nc1cnn(Cc2cccnc2)c1)c1n[nH]c2ccccc12 [Example 54, N-(1-(pyridin-3-ylmethyl)-1H-pyrazol-4-yl)-1H-indazole-3-carboxamide]
1 to 100 nM	–	Cc1cccc(Cn2cc(NC(=O)c3n[nH]c4ccccc34)cn2)c1 [Example 55, N-(1-(3-methylbenzyl)-1H-pyrazol-4-yl)-1H-indazole-3-carboxamide]
1 to 100 nM	–	Cc1ccccc1Cn1cc(NC(=O)c2n[nH]c3ccccc23)cn1 [Example 56, N-(1-(2-methylbenzyl)-1H-pyrazol-4-yl)-1H-indazole-3-carboxamide]
1 to 100 nM	–	O=C(Nc1cnn(Cc2cc(Cl)cc(Cl)c2)c1)c1n[nH]c2ccccc12 [Example 57, N-(1-(3,5-dichlorobenzyl)-1H-pyrazol-4-yl)-1H-indazole-3-carboxamide]
1 to 100 nM	39.2 nM	O=C(Nc1cnn(Cc2ccc(Cl)cc2)c1)c1n[nH]c2ccccc12 [Example 58, N-(1-(4-chlorobenzyl)-1H-pyrazol-4-yl)-1H-indazole-3-carboxamide]
1 to 100 nM	–	O=C(Nc1cnn(Cc2cccc(C(F)(F)F)c2)c1)c1n[nH]c2ccccc12 [Example 59, N-(1-(3-(trifluoromethyl)benzyl)-1H-pyrazol-4-yl)-1H-indazole-3-carboxamide]
> 100 nM	–	O=C(Nc1cnn(Cc2ccccc2C(F)(F)F)c1)c1n[nH]c2ccccc12 [Example 60, N-(1-(2-(trifluoromethyl)benzyl)-1H-pyrazol-4-yl)-1H-indazole-3-carboxamide]
> 100 nM	–	O=C(Nc1cnn(Cc2c(Cl)cccc2Cl)c1)c1n[nH]c2ccccc12 [Example 61, N-(1-(2,6-dichlorobenzyl)-1H-pyrazol-4-yl)-1H-indazole-3-carboxamide]
1 to 100 nM	–	O=C(Nc1cnn(Cc2ccc(C(F)(F)F)cc2)c1)c1n[nH]c2ccccc12 [Example 62, N-(1-(4-(trifluoromethyl)benzyl)-1H-pyrazol-4-yl)-1H-indazole-3-carboxamide]
1 to 100 nM	–	O=C(Nc1cnn(Cc2cccc(F)c2)c1)c1n[nH]c2ccccc12 [Example 63, N-(1-(3-fluorobenz)-1H-pyrazol-4-yl)-1H-indazole-3-carboxamide]
> 100 nM	–	COc1ccccc1Cn1cc(NC(=O)c2n[nH]c3ccccc23)cn1 [Example 64, N-(1-(2-methoxybenzyl)-1H-pyrazol-4-yl)-1H-indazole-3-carboxamide]
1 to 100 nM	–	O=C(Nc1cnn(Cc2ccccc2F)c1)c1n[nH]c2ccccc12 [Example 65, N-(1-(2-fluorobenzyl)-1H-pyrazol-4-yl)-1H-indazole-3-carboxamide]
1 to 100 nM	37.7 nM	COc1ccc(Cn2cc(NC(=O)c3n[nH]c4ccccc34)cn2)cc1 [Example 66, N-(1-(4-methoxybenzyl)-1H-pyrazol-4-yl)-1H-indazole-3-carboxamide]
